From paper PMC7823583, “Discovery of Potent Dual EGFR/HER2 Inhibitors Based on Thiophene Scaffold Targeting H1299 Lung Cancer Cell Line” (Pharmaceuticals, 2020)

Tests used:
NSCLC cell line H1299 = assay: In vitro cytotoxic activity against H1299, sulfo-rhodamine B (SRB) assay; settings: Homo sapiens, NCI-H1299, 48 h, read-out: IC50 against H1299
Description: The potential cytotoxic activity of the target compounds on H1299 lung cancer cell line was tested using sulfo-rhodamine B (SRB) assay according to Skehan method [20]. Single cells were plated in 96-multiwell plates for 24 h before treatment with the compounds. A single concentration of the tested compounds was added to the cell monolayer. Monolayer cell was incubated with the compounds for 48 h at 37 °C and in atmosphere of 5% CO2. After 48 h, cell was fixed, washed and stained with Sulforhodamine-B stain. Acetic acid was then used to wash excess stain and attached stain was recovered with Tris ethylenediaminetetraacetic acid (EDTA) buffer. Color intensity was measured in an enzyme-linked immunosorbent assay (ELISA).

HER2 = HER2 (Homo sapiens, UniProt P04626); assay: HER2 kinase inhibitory assay (Kinase-Glo Plus luminescence kinase assay); assay type: biochemical; settings: read-out: IC50 against HER2
HER2, sequence (P04626 23-1255): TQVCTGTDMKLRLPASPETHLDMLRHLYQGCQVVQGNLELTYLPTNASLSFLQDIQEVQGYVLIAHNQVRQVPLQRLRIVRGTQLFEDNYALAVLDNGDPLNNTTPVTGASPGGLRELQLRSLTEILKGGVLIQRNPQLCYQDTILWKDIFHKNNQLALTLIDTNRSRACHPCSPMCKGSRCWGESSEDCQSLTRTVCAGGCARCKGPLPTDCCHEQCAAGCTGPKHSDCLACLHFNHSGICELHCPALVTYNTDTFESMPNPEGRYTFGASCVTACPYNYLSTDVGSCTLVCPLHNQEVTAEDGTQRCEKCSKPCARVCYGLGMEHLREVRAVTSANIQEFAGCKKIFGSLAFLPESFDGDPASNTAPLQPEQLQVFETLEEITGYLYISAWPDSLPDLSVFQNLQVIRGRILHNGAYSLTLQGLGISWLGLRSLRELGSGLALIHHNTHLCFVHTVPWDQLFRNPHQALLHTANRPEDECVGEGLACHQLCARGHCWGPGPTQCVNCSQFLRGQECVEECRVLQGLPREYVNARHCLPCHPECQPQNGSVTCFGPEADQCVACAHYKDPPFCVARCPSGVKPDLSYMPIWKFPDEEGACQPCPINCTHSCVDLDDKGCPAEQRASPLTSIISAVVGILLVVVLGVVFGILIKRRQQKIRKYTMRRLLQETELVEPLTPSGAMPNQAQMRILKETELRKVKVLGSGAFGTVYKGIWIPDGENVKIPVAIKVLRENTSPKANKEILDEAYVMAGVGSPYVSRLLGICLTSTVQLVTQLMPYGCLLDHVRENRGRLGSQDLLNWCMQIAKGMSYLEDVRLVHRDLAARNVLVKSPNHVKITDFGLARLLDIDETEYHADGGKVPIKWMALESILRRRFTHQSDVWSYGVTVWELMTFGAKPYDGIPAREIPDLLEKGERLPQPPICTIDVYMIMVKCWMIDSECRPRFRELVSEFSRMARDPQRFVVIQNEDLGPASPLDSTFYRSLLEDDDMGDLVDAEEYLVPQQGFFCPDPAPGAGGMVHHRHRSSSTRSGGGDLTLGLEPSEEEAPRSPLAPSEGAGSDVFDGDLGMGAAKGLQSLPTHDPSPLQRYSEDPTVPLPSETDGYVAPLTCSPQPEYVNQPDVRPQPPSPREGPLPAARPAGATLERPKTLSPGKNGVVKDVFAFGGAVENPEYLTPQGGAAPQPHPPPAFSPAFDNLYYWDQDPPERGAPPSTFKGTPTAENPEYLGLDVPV

EGFR = EGFR (Homo sapiens, UniProt P00533); settings: earlier study of the group; read-out: IC50 against EGFR; cited from earlier work
EGFR, sequence (P00533 25-1210): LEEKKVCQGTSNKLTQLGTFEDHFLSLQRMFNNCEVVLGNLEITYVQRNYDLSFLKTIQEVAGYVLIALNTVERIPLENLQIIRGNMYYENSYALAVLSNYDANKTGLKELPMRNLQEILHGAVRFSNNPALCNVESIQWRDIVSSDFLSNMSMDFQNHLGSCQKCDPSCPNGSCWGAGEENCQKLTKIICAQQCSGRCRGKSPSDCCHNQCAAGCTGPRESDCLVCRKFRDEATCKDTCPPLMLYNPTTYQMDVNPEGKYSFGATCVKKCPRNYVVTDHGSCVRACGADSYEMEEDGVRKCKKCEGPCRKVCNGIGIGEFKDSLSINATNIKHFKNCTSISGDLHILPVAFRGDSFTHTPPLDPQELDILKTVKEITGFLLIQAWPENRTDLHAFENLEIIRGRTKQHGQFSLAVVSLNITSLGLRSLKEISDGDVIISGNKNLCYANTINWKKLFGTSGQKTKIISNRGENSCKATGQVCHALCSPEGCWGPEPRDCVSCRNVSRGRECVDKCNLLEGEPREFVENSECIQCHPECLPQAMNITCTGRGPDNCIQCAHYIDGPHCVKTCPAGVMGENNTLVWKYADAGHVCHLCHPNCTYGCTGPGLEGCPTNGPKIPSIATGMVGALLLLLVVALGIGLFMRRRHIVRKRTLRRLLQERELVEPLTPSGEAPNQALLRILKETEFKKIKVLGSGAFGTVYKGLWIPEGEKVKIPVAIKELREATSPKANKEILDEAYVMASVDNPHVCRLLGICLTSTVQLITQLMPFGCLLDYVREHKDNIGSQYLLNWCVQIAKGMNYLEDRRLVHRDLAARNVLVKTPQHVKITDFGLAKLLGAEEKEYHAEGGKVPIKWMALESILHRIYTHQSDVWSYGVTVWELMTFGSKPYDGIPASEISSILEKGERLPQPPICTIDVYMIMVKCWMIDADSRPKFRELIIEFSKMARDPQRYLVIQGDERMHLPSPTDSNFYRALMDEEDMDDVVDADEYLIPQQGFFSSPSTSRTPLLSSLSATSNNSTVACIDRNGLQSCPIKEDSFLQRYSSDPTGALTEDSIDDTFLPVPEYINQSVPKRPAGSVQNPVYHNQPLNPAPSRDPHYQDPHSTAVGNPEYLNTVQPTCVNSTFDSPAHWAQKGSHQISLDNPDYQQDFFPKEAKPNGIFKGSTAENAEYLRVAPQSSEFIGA

SMILES	IC50 (NSCLC cell line H1299)	IC50 (HER2)	IC50 (EGFR)
Nc1cccc(Nc2nnnc3sc4c(c23)CCC4)c1 [Compound 13a, 3-(5,6-dihydro-7H-cyclopenta[4:5]thieno[2,3-d][1,2,3]triazin-4-ylamino)benzene-1,3-diamine]	28.8 nM		
N#Cc1c(NC(=O)CNc2n[nH]c3ncccc23)sc2c1CCCC2 [Compound 21a, 2-(1H-Pyrazolo[3,4-b]pyridin-3-ylamino)-N-(3-cyano4,5,6,7-tetrahydrobenzo[b]thiophen-2-yl)acetamide]	12.5 nM	0.14 nM	
Nc1cccc(Nc2nnnc3sc4c(c23)CCCC4)c1 [Compound 13b, 3-(5,6,7,8-Tetrahydro-7H-cyclohexa[4:5]thieno[2,3-d][1,2,3]triazin-4ylamino)benzene-1,3-diamine]	25 nM		~0.33 nM
Cc1cc(C)c2c(NCC(=O)Nc3sc4c(c3C#N)CCCC4)n[nH]c2n1 [Compound 21b, N-(3-Cyano-4,5,6,7-tetrahydrobenzo[b]thiophen-2-yl)-2-(4,6-dimethyl-1H-pyrazolo[3,4-b]pyridin-3-ylamino)acetamide]	13.7 nM		
Oc1ccc(Nc2nnnc3sc4c(c23)CCC4)cc1 [Compound 8, reference compound]			~38 nM
N#Cc1c(NC(=O)CNc2onc3ncccc23)sc2c1CCCC2 [Compound 23, N-(3-Cyano-4,5,6,7-tetrahydrobenzo[b]thiophen-2-yl)-2-(isoxazolo[3,4-b]pyridin-3-ylamino)acetamide]	18.4 nM		
COc1ccc(C=NNCC(=O)Nc2sc3c(c2C#N)CCCC3)cc1 [Compound 25b, N-(3-Cyano-4,5,6,7-tetrahydrobenzo[b]thiophen-2-yl)-2-(2-(4-methoxybenzylidene)hydrazinyl)acetamide]	18.5 nM		
C(=Nc1cccc(Nc2nnnc3sc4c(c23)CCC4)c1)c1ccccc1 [Compound 14a, 3-(5,6-Dihydro-7H-cyclopenta[4:5]thieno[2,3-d][1,2,3]triazin-4-ylamino)-N-benzylidenebenzene-1,3-diamine]	25.7 nM		
Oc1ccccc1C=Nc1cccc(Nc2nnnc3sc4c(c23)CCC4)c1 [Compound 15a, 3-(5,6-Dihydro-7H-cyclopenta[4:5]thieno[2,3-d][1,2,3]triazin-4-ylamino)-N-(2-hydroxybenzylidene)benzene-1,3-diamine]	32.8 nM		
O=[N+]([O-])c1cccc(C=Nc2cccc(Nc3nnnc4sc5c(c34)CCCC5)c2)c1 [Compound 17b, 3-(5,6,7,8-Tetrahydro-7H-cyclohexa[4:5]thieno[2,3-d][1,2,3]triazin-4-ylamino)-N-(3-nitrobenzylidene)benzene-1,3-diamine]	38.1 nM		
Oc1ccccc1C=Nc1cccc(Nc2nnnc3sc4c(c23)CCCC4)c1 [Compound 15b, 3-(5,6,7,8-Tetrahydro-7H-cyclohexa[4:5]thieno[2,3-d][1,2,3]triazin-4-ylamino)-N-(2-hydroxybenzylidene)benzene-1,3-diamine]	34 nM		
N#Cc1c(NC(=O)CNN=Cc2cccc([N+](=O)[O-])c2)sc2c1CCCC2 [Compound 25a, N-(3-Cyano-4,5,6,7-tetrahydrobenzo[b]thiophen-2-yl)-2-(2-(3-nitrobenzylidene)hydrazinyl)acetamide]	18.5 nM		
